{"source": "patent US20210371895A1", "about": "“BACTERIAL RESPONSE” (BioFire Diagnostics, LLC, priority 2018, published 2021)", "key": {"lexA [1]": {"system": "lexA", "assay": "Pouch panel (+dsDNAse +RT) relative expression level of lexA after ciprofloxacin exposure", "format": "cell-based, Pseudomonas aeruginosa", "conditions": "7.5 or 15 μg/mL ciprofloxacin, 10, 30 and 60 minutes, versus zero ciprofloxacin", "text": "In this illustrative example, a pouch similar to pouch 510 was developed to include a DNase treatment step by including DNAse, illustratively a dsDNAse from Pandalus borealis, freeze dried into the fitment, as well as a slight modification in the elution buffer that is freeze dried into injection channel 515e, although it is understood that this dsDNAse is illustrative only and that other DNAses can be used, as well as other DNA removal methods. For the DNAse step, subsequent to elution, the temperature is raised to a temperature suitable for the DNAse enzyme, illustratively 42° C., followed by reverse-transcription and first-stage multiplex PCR. In this example, the pouch contained 45 different assays of interest (including control genes such as rpoD), targets where mRNA is present in concentrations greater than genomic (“high copy targets”) such as PA14_RS28865, as well as a number of antibiotic resistance gene targets including recA (specific) and lasI (generic) that are present in concentrations lower than genomic. However, it is understood that this panel of assays is illustrative only, and any combination of assays may be used. In one illustrative embodiment, all assays are for RNA targets, illustratively mRNA targets, although other RNA targets may be suitable for detection and/or quantification using the methods provided herein. […]"}, "lasI": {"system": "lasI", "assay": "Benchtop RT-PCR Cp of lasI transcript, strains S1/R1 with ciprofloxacin", "format": "cell-based, P. aeruginosa", "conditions": "15 μg/mL Ciprofloxacin for 10 minutes, cDNA 1:100 dilution", "experimental": "(§1) P. aeruginosa, two strains: one that is resistant and the other susceptible. • S1=susceptible to Ciprofloxacin • R1=resistant to Ciprofloxacin\n(§2) In this example, each strain (S1 and R1) was grown to 0.5 OD600 (-1×10^8 CFU/mL) and each was treated with or without 15 μg/mL of Ciprofloxacin for 10 minutes (two strains, each +/− antibiotic, provides four test conditions). It is understood that the OD and antibiotic incubation time are illustrative only and that other concentrations and times may be used. cDNA was generated by extracting on Magnapure using TNA kit, following bacterial lysis protocol, quantifying using Qubit RNA HS Assay Kit (Q32852), genomic DNA removed and cDNA generated using Maxima H Minus cDNA Kit with dsDNAse (M1682).\nFor some of these genes, a similar ΔCp between susceptible and resistant strains was found both with and without the presence of antibiotics. Such genes are referred to as “generic antibiotic resistance genes” as they distinguish between susceptible and resistant strains even in the absence of antibiotics. Several of these generic antibiotic resistance genes are in the quorum sensing pathway or the iron uptake pathway, while the pathway for several others are unknown. These genes included LasI, RhlI, pqsH, pvdE, PepSY, speD, PA14_RS20905, and coA. […]"}, "lexA [2]": {"system": "lexA", "assay": "Benchtop RT-PCR Cp of lexA transcript, strains S1/R1 with ciprofloxacin", "format": "cell-based, P. aeruginosa", "conditions": "15 μg/mL Ciprofloxacin for 10 minutes, cDNA 1:100 dilution", "experimental": "as §1, §2\nFor other genes, significant ΔCp was found only in the presence of antibiotics. These “specific antibiotic resistance genes” include lexA, sulA, ptrB, and, PA14_RS07985, with ptrB showing up-regulation in the resistant strain. The amplification curves for lexA are shown in FIG. 5B, where the susceptible strain with antibiotic has a Cp about 2 cycles earlier than the other three conditions. For the other three conditions, the resistant strain with and without antibiotics had essentially the same Cp as the susceptible strain without antibiotics."}}, "data": [{"smiles": "O=C(O)c1cn(C2CC2)c2cc(N3CCNCC3)c(F)cc2c1=O", "note": "[Ciprofloxacin]", "values": [{"measurement": "relative expression of lexA (geometric mean normalized Cp)", "setting": "lexA [1]; resistant strain", "result": "did not change"}, {"measurement": "relative expression of lexA (geometric mean normalized Cp)", "setting": "lexA [1]; susceptible strain", "result": "clear time dependent induction"}, {"measurement": "Cp of lasI amplification curve", "setting": "lasI; Resistant strain +ABX", "result": 15.15}, {"measurement": "Cp of lasI amplification curve", "setting": "lasI; Susceptible strain +ABX", "result": 10.55}, {"measurement": "Cp of lexA amplification curve", "setting": "lexA [2]; Resistant strain +ABX", "result": 18.55}, {"measurement": "Cp of lexA amplification curve", "setting": "lexA [2]; Susceptible strain +ABX", "result": 16.36}]}]}
